Consider twelve molecules from ChEMBL document CHEMBL5465560, “Selectivity Literature for EUbOPEN Chemogenomic Library” (2024).

The target of assay [1] is T1, Cyclin-dependent kinase 11A (Homo sapiens) (UniProt Q9UQ88).
T1 sequence (whole entry): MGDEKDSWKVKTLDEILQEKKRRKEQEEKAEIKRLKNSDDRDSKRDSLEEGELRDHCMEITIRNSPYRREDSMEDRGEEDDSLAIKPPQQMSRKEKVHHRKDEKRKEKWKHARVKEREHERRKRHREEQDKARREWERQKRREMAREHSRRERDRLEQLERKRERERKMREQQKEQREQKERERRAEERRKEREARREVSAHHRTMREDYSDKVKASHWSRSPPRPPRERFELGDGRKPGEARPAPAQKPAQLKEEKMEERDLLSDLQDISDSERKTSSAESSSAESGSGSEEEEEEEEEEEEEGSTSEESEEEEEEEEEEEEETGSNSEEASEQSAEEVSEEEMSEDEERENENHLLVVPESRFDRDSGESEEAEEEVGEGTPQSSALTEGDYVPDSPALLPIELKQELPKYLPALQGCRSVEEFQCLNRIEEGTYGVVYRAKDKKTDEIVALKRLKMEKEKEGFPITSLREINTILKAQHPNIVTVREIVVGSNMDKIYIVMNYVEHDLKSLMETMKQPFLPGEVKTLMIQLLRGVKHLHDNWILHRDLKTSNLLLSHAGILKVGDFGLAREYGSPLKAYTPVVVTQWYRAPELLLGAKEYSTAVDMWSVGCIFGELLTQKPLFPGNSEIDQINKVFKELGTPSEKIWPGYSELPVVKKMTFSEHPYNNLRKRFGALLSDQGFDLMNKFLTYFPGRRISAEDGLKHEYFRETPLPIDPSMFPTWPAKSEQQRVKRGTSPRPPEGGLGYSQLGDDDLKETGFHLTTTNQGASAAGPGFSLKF
Put plainly: Selectivity interaction (KinomeScan (DiscoverX)) EUB0001079a CDK11A. The following applies: at 1 µM.

Assay [2] concerns the target Myosin light chain kinase 2, skeletal/cardiac muscle (Homo sapiens) (UniProt Q9H1R3). Nature of the assay: Selectivity interaction (KinomeScan (DiscoverX)) EUB0000092b MYLK2. The following applies: at 10 µM.
The target in assay [3] is T2, Inhibitor of nuclear factor kappa-B kinase subunit beta (Homo sapiens) (UniProt O14920).
T2 sequence (whole entry): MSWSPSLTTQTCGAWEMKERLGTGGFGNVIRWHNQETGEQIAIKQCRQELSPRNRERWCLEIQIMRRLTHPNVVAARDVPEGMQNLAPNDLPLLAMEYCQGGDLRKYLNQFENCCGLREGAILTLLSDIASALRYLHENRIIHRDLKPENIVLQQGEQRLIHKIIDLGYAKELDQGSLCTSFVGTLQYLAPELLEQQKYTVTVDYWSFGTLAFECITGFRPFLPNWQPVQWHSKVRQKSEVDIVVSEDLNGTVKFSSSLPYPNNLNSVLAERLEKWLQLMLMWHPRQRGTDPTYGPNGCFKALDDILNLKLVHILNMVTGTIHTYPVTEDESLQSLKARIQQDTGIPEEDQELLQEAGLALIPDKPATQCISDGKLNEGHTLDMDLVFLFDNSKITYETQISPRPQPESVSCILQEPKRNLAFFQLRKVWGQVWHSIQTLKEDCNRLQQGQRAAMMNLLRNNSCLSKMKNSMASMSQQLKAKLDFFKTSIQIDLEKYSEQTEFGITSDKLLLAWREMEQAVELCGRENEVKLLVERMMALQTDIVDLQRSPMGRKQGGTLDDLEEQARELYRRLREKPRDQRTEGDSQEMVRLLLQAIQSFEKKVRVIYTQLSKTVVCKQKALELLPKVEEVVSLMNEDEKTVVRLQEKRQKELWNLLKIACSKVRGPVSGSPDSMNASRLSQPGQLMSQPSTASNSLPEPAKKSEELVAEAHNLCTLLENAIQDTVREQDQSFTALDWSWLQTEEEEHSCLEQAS
Nature of the assay: Selectivity interaction (KinomeScan (DiscoverX)) EUB0000655a IKBKB. As to conditions: at 10 µM.

The target in assay [4] is D(2) dopamine receptor (Homo sapiens, UniProt P14416). Put plainly: Selectivity interaction (Eurofins CEREP Diversity Profile (receptors and ion channels)) EUB0000279b DRD2. As to conditions: at 10 µM.
For assay [5], the target named is T3, Tyrosine-protein kinase Tec (Homo sapiens) (UniProt P42680).
T3 sequence (whole entry): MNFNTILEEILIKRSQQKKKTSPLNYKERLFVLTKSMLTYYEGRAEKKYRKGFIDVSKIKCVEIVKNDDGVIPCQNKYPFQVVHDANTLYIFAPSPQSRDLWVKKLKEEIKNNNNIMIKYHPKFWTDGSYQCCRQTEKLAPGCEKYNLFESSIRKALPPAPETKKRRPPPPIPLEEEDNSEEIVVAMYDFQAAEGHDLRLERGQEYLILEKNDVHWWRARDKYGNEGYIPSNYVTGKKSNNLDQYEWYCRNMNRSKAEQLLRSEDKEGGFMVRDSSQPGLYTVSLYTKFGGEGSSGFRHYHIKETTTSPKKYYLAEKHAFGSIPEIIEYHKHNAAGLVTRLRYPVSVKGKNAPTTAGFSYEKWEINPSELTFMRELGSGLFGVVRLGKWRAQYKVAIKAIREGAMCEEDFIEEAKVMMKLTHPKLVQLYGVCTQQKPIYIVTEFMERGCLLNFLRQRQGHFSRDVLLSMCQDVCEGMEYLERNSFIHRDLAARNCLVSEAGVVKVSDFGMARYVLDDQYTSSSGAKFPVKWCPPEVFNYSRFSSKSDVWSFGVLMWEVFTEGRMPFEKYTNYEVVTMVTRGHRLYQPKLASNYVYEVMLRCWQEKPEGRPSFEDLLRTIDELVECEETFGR
Nature of the assay: Selectivity interaction (KinomeScan (DiscoverX)) EUB0001868a TEC. As to conditions: at 1 µM.

In assay [6] the target is MAP kinase-activated protein kinase 2 (Homo sapiens, UniProt P49137). Nature of the assay: Selectivity interaction (Kinase panel (Z-LYTE Assay)) EUB0001632a MAPKAPK2. The following applies: at 10 µM.
In assay [7] the target is Mitogen-activated protein kinase 4 (Homo sapiens) (UniProt P31152). Nature of the assay: Selectivity interaction (KinomeScan (DiscoverX)) EUB0000607a MAPK4. As to conditions: at 10 µM.
For assay [8], the target named is 5'-AMP-activated protein kinase catalytic subunit alpha-2 (Homo sapiens) (UniProt P54646). Put plainly: Selectivity interaction (KinomeScan (DiscoverX)) EUB0000607a PRKAA2. As to conditions: at 10 µM.
Assay [9] addresses Dual specificity mitogen-activated protein kinase kinase 1 (Homo sapiens, UniProt Q02750). Nature of the assay: Selectivity interaction (Kinase panel (Invitrogen)) EUB0000639a MAP2K1. The following applies: at 200 nM.
Assay [10] is described as follows: Selectivity interaction (KinomeScan (DiscoverX)) EUB0000229b CDK2H. As to conditions: at 1 µM.
Assay [11] has as its target Nucleosome-remodeling factor subunit BPTF (Homo sapiens, UniProt Q12830). Nature of the assay: Selectivity interaction (Human bromodomain panel (DSF assay)) EUB0000233b BPTF.
The target of assay [12] is Mitogen-activated protein kinase 9 (Homo sapiens, UniProt P45984). Nature of the assay: Selectivity interaction (KinomeScan (DiscoverX)) EUB0001619a MAPK9. As to conditions: at 1 µM.
Assay [13] has as its target Ribosomal protein S6 kinase alpha-2 (Homo sapiens) (UniProt Q15349). Nature of the assay: Selectivity interaction (KinomeScan (DiscoverX)) EUB0000618a RPS6KA2. The following applies: at 10 µM.

5'-AMP-activated protein kinase catalytic subunit alpha-2 (Homo sapiens), sequence (P54646 whole entry, looked up): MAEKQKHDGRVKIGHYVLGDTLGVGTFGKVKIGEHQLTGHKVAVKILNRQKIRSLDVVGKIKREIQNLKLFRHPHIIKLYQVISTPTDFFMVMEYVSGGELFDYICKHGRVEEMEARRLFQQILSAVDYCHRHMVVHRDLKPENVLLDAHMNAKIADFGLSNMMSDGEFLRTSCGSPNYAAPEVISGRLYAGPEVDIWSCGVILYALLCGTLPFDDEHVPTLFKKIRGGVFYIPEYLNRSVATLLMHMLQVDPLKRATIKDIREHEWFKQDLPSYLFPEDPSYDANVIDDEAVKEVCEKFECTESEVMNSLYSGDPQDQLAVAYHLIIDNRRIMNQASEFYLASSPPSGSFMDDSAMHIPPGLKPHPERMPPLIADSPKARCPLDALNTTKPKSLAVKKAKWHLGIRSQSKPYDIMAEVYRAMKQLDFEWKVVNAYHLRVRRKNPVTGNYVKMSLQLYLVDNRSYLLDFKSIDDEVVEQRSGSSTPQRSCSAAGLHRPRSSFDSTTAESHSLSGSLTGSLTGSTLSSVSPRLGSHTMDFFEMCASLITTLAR
MAP kinase-activated protein kinase 2, sequence (P49137 whole entry, looked up): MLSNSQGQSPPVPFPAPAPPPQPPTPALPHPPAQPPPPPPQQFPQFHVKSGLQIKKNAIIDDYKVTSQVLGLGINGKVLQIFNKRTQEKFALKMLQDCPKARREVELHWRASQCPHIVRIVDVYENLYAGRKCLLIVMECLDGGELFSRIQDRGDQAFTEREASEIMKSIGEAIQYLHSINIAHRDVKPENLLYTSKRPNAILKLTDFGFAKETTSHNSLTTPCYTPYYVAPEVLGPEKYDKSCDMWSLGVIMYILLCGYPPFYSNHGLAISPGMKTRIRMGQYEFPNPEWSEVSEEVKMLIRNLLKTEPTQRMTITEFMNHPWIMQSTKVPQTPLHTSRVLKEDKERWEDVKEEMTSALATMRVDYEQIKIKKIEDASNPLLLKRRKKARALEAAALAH
Dual specificity mitogen-activated protein kinase kinase 1, sequence (Q02750 whole entry): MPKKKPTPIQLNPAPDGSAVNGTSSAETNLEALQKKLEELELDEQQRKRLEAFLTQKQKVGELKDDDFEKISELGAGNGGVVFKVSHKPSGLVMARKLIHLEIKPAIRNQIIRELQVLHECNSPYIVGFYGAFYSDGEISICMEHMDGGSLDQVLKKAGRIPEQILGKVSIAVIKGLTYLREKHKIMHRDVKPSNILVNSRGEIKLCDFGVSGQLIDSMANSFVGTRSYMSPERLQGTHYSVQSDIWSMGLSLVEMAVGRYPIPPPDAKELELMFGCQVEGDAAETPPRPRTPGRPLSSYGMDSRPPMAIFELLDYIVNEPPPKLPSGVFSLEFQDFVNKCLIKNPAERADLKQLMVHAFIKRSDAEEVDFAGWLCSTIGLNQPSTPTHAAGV
Mitogen-activated protein kinase 4 (Homo sapiens), sequence (P31152 whole entry): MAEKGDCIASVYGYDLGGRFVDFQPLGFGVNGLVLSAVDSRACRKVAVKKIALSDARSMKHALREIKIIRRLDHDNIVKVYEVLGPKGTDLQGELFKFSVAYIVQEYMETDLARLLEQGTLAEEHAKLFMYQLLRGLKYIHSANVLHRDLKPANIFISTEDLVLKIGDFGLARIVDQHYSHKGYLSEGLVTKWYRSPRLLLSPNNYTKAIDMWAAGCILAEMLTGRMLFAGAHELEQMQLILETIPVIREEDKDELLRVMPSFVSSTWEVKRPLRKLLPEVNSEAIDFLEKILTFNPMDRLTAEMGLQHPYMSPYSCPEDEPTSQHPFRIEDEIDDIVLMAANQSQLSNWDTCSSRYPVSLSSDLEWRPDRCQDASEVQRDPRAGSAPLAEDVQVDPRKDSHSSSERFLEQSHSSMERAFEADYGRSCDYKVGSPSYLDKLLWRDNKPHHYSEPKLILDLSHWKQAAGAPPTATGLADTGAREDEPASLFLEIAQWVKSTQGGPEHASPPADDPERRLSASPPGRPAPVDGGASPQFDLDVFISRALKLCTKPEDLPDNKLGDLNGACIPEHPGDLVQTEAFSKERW
D(2) dopamine receptor, sequence (P14416 whole entry): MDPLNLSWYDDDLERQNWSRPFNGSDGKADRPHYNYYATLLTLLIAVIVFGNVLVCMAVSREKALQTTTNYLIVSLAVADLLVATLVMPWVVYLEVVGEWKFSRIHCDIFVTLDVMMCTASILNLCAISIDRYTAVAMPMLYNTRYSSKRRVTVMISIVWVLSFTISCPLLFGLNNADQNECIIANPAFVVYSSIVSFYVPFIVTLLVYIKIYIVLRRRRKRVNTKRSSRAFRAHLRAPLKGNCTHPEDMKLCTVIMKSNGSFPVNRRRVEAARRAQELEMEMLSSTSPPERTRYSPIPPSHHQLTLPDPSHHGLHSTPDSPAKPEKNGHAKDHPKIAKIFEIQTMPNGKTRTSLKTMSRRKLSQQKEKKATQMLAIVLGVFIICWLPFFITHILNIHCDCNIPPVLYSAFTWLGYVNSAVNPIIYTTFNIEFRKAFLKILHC
Mitogen-activated protein kinase 9, sequence (P45984 whole entry, looked up): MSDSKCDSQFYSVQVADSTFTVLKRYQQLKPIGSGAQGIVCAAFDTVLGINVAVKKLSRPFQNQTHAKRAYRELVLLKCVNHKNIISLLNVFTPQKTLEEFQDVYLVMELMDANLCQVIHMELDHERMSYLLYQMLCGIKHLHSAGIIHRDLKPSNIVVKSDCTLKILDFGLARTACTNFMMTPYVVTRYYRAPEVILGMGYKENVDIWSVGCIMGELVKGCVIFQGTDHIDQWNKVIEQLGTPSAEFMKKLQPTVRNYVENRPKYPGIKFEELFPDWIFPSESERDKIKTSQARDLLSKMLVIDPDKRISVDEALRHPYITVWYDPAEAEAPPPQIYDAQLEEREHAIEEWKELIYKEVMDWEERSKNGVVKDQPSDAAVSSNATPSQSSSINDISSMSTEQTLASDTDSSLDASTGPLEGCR
Myosin light chain kinase 2, skeletal/cardiac muscle (Homo sapiens), sequence (Q9H1R3 whole entry): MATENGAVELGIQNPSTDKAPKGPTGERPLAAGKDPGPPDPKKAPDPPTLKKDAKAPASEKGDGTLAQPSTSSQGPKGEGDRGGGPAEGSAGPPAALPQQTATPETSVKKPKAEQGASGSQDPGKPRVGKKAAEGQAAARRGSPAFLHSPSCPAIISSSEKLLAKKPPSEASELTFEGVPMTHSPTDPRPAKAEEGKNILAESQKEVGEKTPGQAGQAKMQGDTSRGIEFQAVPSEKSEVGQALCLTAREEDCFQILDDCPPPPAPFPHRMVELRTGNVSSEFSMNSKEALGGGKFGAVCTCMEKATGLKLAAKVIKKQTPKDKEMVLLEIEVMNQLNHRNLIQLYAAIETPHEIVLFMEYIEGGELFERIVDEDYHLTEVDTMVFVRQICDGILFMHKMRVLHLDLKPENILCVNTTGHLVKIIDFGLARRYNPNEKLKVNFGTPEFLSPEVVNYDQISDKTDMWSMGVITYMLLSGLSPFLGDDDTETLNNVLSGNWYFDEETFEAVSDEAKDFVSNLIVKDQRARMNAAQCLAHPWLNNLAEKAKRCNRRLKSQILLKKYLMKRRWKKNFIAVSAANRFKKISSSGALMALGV
Ribosomal protein S6 kinase alpha-2 (Homo sapiens), sequence (Q15349 whole entry): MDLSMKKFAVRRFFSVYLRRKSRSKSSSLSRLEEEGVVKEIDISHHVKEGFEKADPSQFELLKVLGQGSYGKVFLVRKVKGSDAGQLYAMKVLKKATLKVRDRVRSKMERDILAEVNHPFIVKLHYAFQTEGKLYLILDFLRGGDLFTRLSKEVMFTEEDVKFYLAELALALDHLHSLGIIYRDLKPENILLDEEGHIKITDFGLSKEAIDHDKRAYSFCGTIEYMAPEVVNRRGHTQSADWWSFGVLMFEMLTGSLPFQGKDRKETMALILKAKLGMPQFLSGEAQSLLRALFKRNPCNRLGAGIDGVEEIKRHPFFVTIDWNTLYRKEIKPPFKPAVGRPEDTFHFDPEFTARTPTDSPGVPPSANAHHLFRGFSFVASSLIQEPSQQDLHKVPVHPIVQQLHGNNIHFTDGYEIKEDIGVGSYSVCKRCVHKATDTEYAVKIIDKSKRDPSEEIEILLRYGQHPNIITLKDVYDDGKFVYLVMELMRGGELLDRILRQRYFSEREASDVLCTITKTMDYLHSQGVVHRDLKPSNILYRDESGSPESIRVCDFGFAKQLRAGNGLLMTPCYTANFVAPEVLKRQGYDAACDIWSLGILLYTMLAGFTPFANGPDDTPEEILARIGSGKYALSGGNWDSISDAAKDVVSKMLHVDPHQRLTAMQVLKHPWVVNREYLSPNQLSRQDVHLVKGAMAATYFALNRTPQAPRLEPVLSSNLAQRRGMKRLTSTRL

Regarding `Nc1cnc(N2CCc3cc(S(=O)(=O)Nc4c(F)cc(Cl)cc4F)cc(N4CCCC4=O)c32)nc1` [TP-020n], the % of control in assay [1] worked out at 89%.

Turning to `CCC(=O)N1CCN(c2ccc(-n3c(=O)ccc4cnc5ccc(-c6cnc7ccccc7c6)cc5c43)cc2C(F)(F)F)CC1`, the % of control in assay [2] was found to be 40%.

Regarding `CN(C)CCOc1ccc(-c2nc(-c3ccncc3)c(-c3ccc4c(c3)CC/C4=N\O)[nH]2)cc1`, the % of control in [3] amounted to 100%.

Regarding `CC(=O)c1cc(-c2ccccc2OCC2CC2)c2ncccn12`, in assay [4], the % of control came out at 92%.

As for `Cc1cc(-c2ccnc(Nc3cnn(C)c3)n2)ccc1CNC(=O)N1CC(OC(C)C)C1`, in assay [5], the % of control is 46%.

Regarding `Cn1cc(-n2cnc3c(NCc4nc5cc(Cl)c(Cl)cc5[nH]4)nc(N4CCOCC4)nc32)cn1`, the % of control in assay [6] was -2.67%.

`CNC(=O)Nc1ccc(-c2nc(N3CC4CCC(C3)O4)c3cnn(C4CCC5(CC4)OCCO5)c3n2)cc1`: the % of control was 100% in assay [7] and 93% in [8].

In [9], `CC[C@@H]1[C@H](F)C(=O)N[C@@H]1COc1nccc2cc(C(N)=O)c(OC)cc12` [ZIMLOVISERTIB] gave a % of inhibition of 9.31%.

Regarding `COc1cc(N(C)c2ccnc3ccc(C(F)(F)F)cc23)cc(OC)c1OC`, the % binding in assay [10] worked out at 100%.

For `CN(C)CCCOc1ccc(-c2cc(NCCCn3cccn3)nc(S(C)(=O)=O)n2)cc1`, the dTM in assay [11] came to 4 K.

In the case of `N#Cc1cccc(-c2c[nH]c3ncnc(N4CCOCC4)c23)c1`, in assay [12], the % of control is 87%.

On to `O[C@H]1CC[C@H](Nc2ncc3nc(Nc4c(F)cc(F)cc4F)n([C@H]4CCOC4)c3n2)CC1`, for which the % of control in [13] was determined as 91%.
